Assay results taken from patent US6632962B2, “Caspase inhibitors and uses thereof” (Vertex Pharmaceuticals Incorporated, priority 1999, dated 2003).
Counter-ions that a name gives are not always drawn.

Columns and labels:
Jurkat E6.1 cells = assay: Anti-Fas induced apoptosis assay (DNA fragmentation); type: cell-based; conditions: Homo sapiens, anti-Fas antibody CH-11 10 ng/ml, 16-18 hrs, DNA fragmentation OD405
Source text: Cellular apoptosis may be induced by the binding of Fas ligand (FasL) to its receptor, CD95 (Fas). CD95 is one of a family of related receptors, known as death receptors, which can trigger apoptosis in cells via activation of the caspase enzyme cascade. The process is initiated by the binding of the adapter molecule FADD/MORT-1 to the cytoplasmic domain of the CD-95 receptor-ligand complex. Caspase-8 then binds FADD and becomes activated, initiating a cascade of events that involve the activation of downstream caspases and subsequent cellular apoptosis. Apoptosis can also be induced in cells expressing CD95 eg the Jurkat E6.1 T cell lymphoma cell line, using an antibody, rather than FasL, to crosslink the cell surface CD95. Anti-Fas-induced apoptosis is also triggered via the activation of caspase-8. This provides the basis of a cell-based assay to screen compounds for inhibition of the caspase-8-mediated apoptotic pathway.
Jurkat E6.1 cells are cultured in complete medium consisting of RPMI-1640 (Sigma No)+10% foetal calf serum (Gibco BRL No.10099-141)+2 mM L-glutamine (Sigma No. G-7513). The cells are harvested in log phase of growth. 100 ml Cells at 5-8×10^5 cells/ml are transferred to sterile 50 ml Falcon centrifuge tubes and centrifuged for 5 minutes at 100× g at room temperature. The supernatant is removed and the combined cell pellets resuspended in 25 ml of complete medium. The cells are counted and the density adjusted to 2×10^6 cells/ml with complete medium.
The test compound was dissolved in dimethyl sulfoxide (DMSO)(Sigma No. D-2650) to give a 100 mM stock solution. This was diluted to 400 μM in complete medium, then serially diluted in a 96-well plate prior to addition to the cell assay plate.
100-μl of the cell suspension ([…]) were added to each well of a sterile 96-well round-bottomed cluster plate (Costar No. 3790). 50 μl of compound solution at the appropriate dilution and 50 μl of anti-Fas antibody, clone CH-11 (Kamiya No.MC-060) at a final concentration of 10 ng/ml, were added to the wells. Control wells were set up minus antibody and minus compound but with a serial dilution of DMSO as vehicle control. The plates were incubated for 16-18 hrs at 37° C. in 5% CO2 and 95% humidity.
Apoptosis of the cells was measured by the quantitation of DNA fragmentation using a ‘Cell Death Detection Assay’ from Boehringer-Mannheim, No. 1544 675. After incubation for 16-18 hrs the assay plates were centrifuged at 100× g at room temperature for 5 minutes. 150 μl of the supernatant were removed and replaced by 150 μl of fresh complete medium. The cells were then harvested and 200 μl of the lysis buffer supplied in the assay kit were added to each well. The cells were triturated to ensure complete lysis and incubated for 30 minutes at 4° C. The plates were then centrifuged at 1900× g for 10 minutes and the supernatants diluted 1:20 in the incubation buffer provided. 100 μl of this solution were then assayed exactly according to the manufacturer's instructions supplied with the kit. OD405 nm were measured 20 minutes after addition of the final substrate in a SPECTRAmax Plus plate reader (molecular Devices). OD405 nm was plotted versus compound concentration and the IC50 values for the compounds were calculated using the curve-fitting program SOFTmax Pro (Molecular Devices) using the four parameter fit option.

[1] = target: recombinant, purified human caspase-8 (Homo sapiens, UniProt Q14790); assay: Caspase-8 assay (fluorogenic substrate cleavage, kinact); type: biochemical; conditions: second order rate constant of inactivation; 1.5 nM caspase-8, 10 μM AcDEVD-AMC, 37° C.
Experimental: The assay for caspase-8 activity was based on the cleavage of a fluorogenic substrate by recombinant, purified human caspase-8 essentially according to the method described by Garcia-Calvo et al (1998) J. Biol. Chem. 273:32608-32613.
(§1) Assay Buffer: 10 mM Tris-HCI (Sigma T-3038), 1 mM dithiothreitol (DTT) (Calbiochem 233153), 0.1% CHAPS (Sigma C-3023), pH 7.5. Purified recombinant human Caspase-8. Substrate (acetyl-Asp-Glu-Val-Asp-amino-4-methyl coumarin, ACDEVD-AMC) (Bachem, I-1660). Serial dilution of test compound in DMSO (Sigma D-2650).
(§2) 70 microliters (μl) assay buffer, 20 μl of substrate and 5 μl of the inhibitor solution were added to the wells of a 96-well microtiter assay plate giving a final concentration of 1.5 nM caspase-8 and 10 μM substrate. The plate was incubated at 50° C. for 15 minutes in a thermostatically controlled plate warmer (Wesbart, UK). The reaction was then started by the addition of enzyme directly to the wells. The reaction was monitored continuously for 20 minutes in a fluorimeter (SPECTRAmax Gemini, Molecular Devices) at 37° C. by following the release of AMC fluorophor at an excitation wavelength of 390 nm and an emission wavelength of 460 nm. For each well, the observed rate of enzyme inactivation at a particular inhibitor concentration, kobs, was computed by direct fits of the data to the equation derived by Thornberry et al., (1994, Biochemistry 33, […]) using a non-linear least squares analysis computer program (PRISM 2.0, Graph Pad Software). To obtain the second order rate constant, kinact, kobs values were plotted against their respective inhibitor concentrations and kinact values were subsequently calculated by computerized linear regression.

Caspase-9 = target: T1, Caspase-9 (Homo sapiens, UniProt P55211); assay: Caspase-9 assay (fluorogenic substrate cleavage, kinact); type: biochemical; conditions: second order rate constant of inactivation; 0.00125 units/ml caspase-9, 50 μM AcDEVD-AMC, buffer with 8% glycerol
T1 construct: purchased Europa Bioproducts UBC2088
T1 sequence (P55211 1-315 limits assumed): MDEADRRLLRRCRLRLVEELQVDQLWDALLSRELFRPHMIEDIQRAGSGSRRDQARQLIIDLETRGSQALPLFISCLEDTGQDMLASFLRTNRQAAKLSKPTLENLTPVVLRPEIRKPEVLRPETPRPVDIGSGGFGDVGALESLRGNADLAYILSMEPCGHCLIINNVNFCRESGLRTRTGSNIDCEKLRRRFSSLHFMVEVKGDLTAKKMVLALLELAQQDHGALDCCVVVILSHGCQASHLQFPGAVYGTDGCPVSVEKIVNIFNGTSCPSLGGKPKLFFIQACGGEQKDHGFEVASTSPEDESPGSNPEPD
T1 sequence (P55211 331-416 limits assumed): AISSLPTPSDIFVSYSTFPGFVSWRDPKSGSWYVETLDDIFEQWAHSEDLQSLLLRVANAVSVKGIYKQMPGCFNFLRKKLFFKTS
Experimental: as §1, §2
Caspase-9 was purchased from Europa Bioproducts (order No UBC2088) and used with a concentration of 0.00125 units/ml (units defined by the manufacturer as amount of enzyme that cleaves 1 nmol of LEHD-pNA in 1 h at 37° C.). The assay was run as described for the caspase-8 assay except that the caspase-9 buffer additionally contained 8% glycerol (and the substrate concentration is 50 μM AcDEVD-AMC as opposed to 10 μM for caspase-8).

Chain of recombinant, purified human caspase-8 (Q14790 217-374 limits assumed): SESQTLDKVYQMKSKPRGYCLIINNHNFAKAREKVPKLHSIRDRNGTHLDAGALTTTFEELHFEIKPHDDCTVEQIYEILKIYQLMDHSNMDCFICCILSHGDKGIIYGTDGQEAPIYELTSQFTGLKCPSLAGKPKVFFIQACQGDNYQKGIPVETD
Chain of recombinant, purified human caspase-8 (Q14790 385-479 limits assumed): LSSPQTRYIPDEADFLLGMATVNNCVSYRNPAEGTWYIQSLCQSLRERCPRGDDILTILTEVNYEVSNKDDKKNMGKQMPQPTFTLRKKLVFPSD

IC50 (Jurkat E6.1 cells) | Kinact (1/M/s), Caspase-8 Activity [1] | Kinact (1/M/s), Caspase-9 Activity (Caspase-9) | SMILES
< 200 nM | A (kinact (1/M/s) greater than 60,000) | A (kinact (1/M/s) greater than 60,000) | O=C(O)CC(NC(=O)c1ccccc1)C(=O)CF (centres unmarked) [Example 1, 3-Benzoylamino-5-fluoro-4-oxo-pentanoic Acid]
< 200 nM | C (kinact less than 40,000) | – | O=C(O)CC(NC(=O)c1ccccc1Cl)C(=O)CF (centres unmarked) [Example 4, 3-(2-Chlorobenzoylamino)-5-fluoro-4-oxo-pentanoic Acid]
200 to 1000 nM | B (kinact between 40,000 and 60,000) | – | O=C(O)CC(NC(=O)c1ccc(Cl)c(Cl)c1)C(=O)CF (centres unmarked) [Example 7, 3-(3,4-Dichlorobenzoylamino)-5-fluoro-4-oxo-pentanoic Acid]
< 200 nM | B (kinact between 40,000 and 60,000) | – | O=C(O)CC(NC(=O)c1cccc(F)c1)C(=O)CF (centres unmarked) [Example 10, 5-Fluoro-3-(3-fluorobenzoylamino)-4-oxo-pentanoic Acid]
> 1000 nM | C (kinact less than 40,000) | – | O=C(O)CC(NC(=O)c1ccc(C(F)(F)F)cc1)C(=O)CF (centres unmarked) [Example 13, 5-Fluoro-3-(4-trifluoromethylbenzoylamino)-4-oxo-pent anoic Acid]
– | – | B (kinact less than 60,000) | O=C(O)CC(NC(=O)c1cccc(-c2ccccc2)c1)C(=O)CF (centres unmarked) [Example 14, 3-(Biphenyl-3-carboxamido)-5-fluoro-4-oxo-pentanoic Acid]
< 200 nM | B (kinact between 40,000 and 60,000) | – | COc1cccc(C(=O)NC(CC(=O)O)C(=O)CF)c1 (centres unmarked) [Example 16, 5-Fluoro-3-(3-methoxybenzoylamino)-4-oxo-pentanoic Acid]
200 to 1000 nM | B (kinact between 40,000 and 60,000) | – | N#Cc1cccc(C(=O)NC(CC(=O)O)C(=O)CF)c1 (centres unmarked) [Example 19, 3-(3-Cyanobenzoylamino)-5-fluoro-4-oxo-pentanoic Acid]
< 200 nM | B (kinact between 40,000 and 60,000) | – | O=C(O)CC(NC(=O)c1cccc2ccccc12)C(=O)CF (centres unmarked) [Example 22, 5-Fluoro-3-(naphthyl-1-carboxamido)-4-oxo-pentanoic acid]
< 200 nM | B (kinact between 40,000 and 60,000) | – | O=C(O)CC(NC(=O)c1cccnc1)C(=O)CF (centres unmarked) [Example 25, 5-Fluoro-4-oxo-3-(pyridyl-3-carboxamido)-pentanoic Acid Trifluoroacetate Salt]
< 200 nM | C (kinact less than 40,000) | – | O=C(O)CC(NC(=O)c1cccs1)C(=O)CF (centres unmarked) [Example 28, 5-Fluoro-4-oxo-3-(thienyl-2-carboxamido)-pentanoic Acid]
– | – | B (kinact less than 60,000) | O=C(O)CC(NC(=O)c1ccsc1)C(=O)CF (centres unmarked) [Example 29, 5-Fluoro-4-oxo-3-(thienyl-3-carboxamido)-pentanoic Acid]
> 1000 nM | C (kinact less than 40,000) | – | O=C(O)CC(NC(=O)c1cc2ccccc2[nH]1)C(=O)CF (centres unmarked) [Example 31, 5-Fluoro-3-(1H-indolyl-2-carboxamido)-4-oxo-pentanoi c Acid]
200 to 1000 nM | A (kinact (1/M/s) greater than 60,000) | – | O=C(O)CC(NC(=O)c1ccc(-c2ccccc2)o1)C(=O)CF (centres unmarked) [Example 34, 5-Fluoro-3-(5-phenyl-furyl-2-carboxamido)-4-oxo-pentanoic Acid]
< 200 nM | A (kinact (1/M/s) greater than 60,000) | – | O=C(O)CC(NC(=O)c1cccc(Oc2ccccc2)c1)C(=O)CF (centres unmarked) [Example 37, 5-Fluoro-4-oxo-3-(3-phenoxybenzoylamino)-pentanoic Acid]
